# Molecular target: T1, AMPK complex 1 (containing alpha1beta1gamma1) (Homo sapiens, UniProt Q13131+Q9Y478)
# T1 construct: GST (Glutathion S transferase) (N); made in house; host or cells: baculovirus; virus made in Sf9, expression in High Five cells
# Test: In vitro AMPK activation assay (ADP-Glo Kinase Assay)
# Format: biochemical
# Details: 30 μM ATP, 1 μM peptide, 60 min, room temperature
# Text: Activated AMPK complex 1 (containing alpha1beta1gamma1) was obtained from baculovirus expression system. The gene encoding AMPK alpha1 was cloned into the pACG2T vector (BD Biosciences) to obtain a N-terminal Glutathion S transferase (GST)-fusion protein. The genes encoding AMPK beta 1 and gamma1 were cloned into the p2Bac dual multiple cloning site vector (Invitrogen) with beta1 under the control of the p10 promoter and gamma1 under the control of the PH promoter. The transfer vectors containing AMPK were co-transfected individually with AcPNV BacMagic-3 DNA (EMD Millipore) in Sf9 cells and the recombinant baculoviruses were harvested after 5 days, followed by 3 rounds of amplification of the virus stock in Sf9 cells. AMPK (alpha1beta1gamma1) was expressed in High Five 5 cells by co-infection of recombinant alpha1 virus and recombinant beta1/gamma1 virus for 72 h at 27° C. Cells were harvested by centrifugation and lysed by 3 freeze/thaw cycles in PBS with 10% glycerol and protease inhibitor cocktail (Roche). After centrifugation AMPK a1b1g1 in the supernatant was captured by immobilized glutathione (GE Healthcare), impurities were washed away with PBS and AMPK alpha1beta1gamma1 was eluted with PBS containing 20 mM reduced gluthathione. The protein buffer was then exchanged to PBS with 10% glycerol and protein concentration was determined by UV absorbance.
# The white 384-well Optiplates (cat.no. 6007299) were purchased from PerkinElmer. The V9101 ADP-Glo Kinase Assay and ultra pure ATP (V915A) was purchased from Promega. The substrate for AMPK (NH2-HMRSAMSGLHLVKRR_CONH2) was purchased from Upstate (12-355).
# Compounds were tested in either serial dilutions or single dose concentrations. The serial compound dilutions were prepared in 100% DMSO automatically. The final DMSO concentration in the assay was 0.1%.
# The Compound Stock Solutions were 10 mM in 100% DMSO. The compounds were solubilised at room temperature.
# In the 384-well plates 1.25 ul of test compound in assay buffer was mixed with 1.25 ul of AMPK and 1.25 μl of the peptide (final concentration of 1 μM) and 1.25 μl of ATP (final concentration of 30 μM), both dissolved in assay buffer. This step was followed by an incubation time of 60 min. Then 5 μl of ADP Glo Reagent was added. This was followed by 40 min of incubation. Then 10 μl of Kinase Detection Reagent was admixed. The plates were sealed and after an incubation period of 30 min, the luminescence signal was measured in an Envision reader. All incubation steps were accomplished at room temperature.
# Each assay microtiter plate contained wells with vehicle controls instead of compound (0.1% DMSO in water) as reference for the low signal (100% CTL, low signal), and wells with serial dilutions of AMP (final 30 μM) as reference for high signals.
# The luminescence signal generated was proportional to the ADP concentration produced and was correlated with AMPK activity. The analysis of the data was performed by the calculation of the percentage of ATP consumption of AMPK in the presence of the test compound compared to the consumption of ATP in the presence of AMPK without compound. (RLU(sample)/RLU(low control))*100[RLU=relative luminescence units]
# An activator of the AMPK enzyme gave values above 100% CTL.
# EC50 values based on dose response curves are calculated with the XIFIT software using the 4 Parameter Logistic Model or Sigmoidal Dose-Response Model.
# T1 sequence (Q13131 whole entry): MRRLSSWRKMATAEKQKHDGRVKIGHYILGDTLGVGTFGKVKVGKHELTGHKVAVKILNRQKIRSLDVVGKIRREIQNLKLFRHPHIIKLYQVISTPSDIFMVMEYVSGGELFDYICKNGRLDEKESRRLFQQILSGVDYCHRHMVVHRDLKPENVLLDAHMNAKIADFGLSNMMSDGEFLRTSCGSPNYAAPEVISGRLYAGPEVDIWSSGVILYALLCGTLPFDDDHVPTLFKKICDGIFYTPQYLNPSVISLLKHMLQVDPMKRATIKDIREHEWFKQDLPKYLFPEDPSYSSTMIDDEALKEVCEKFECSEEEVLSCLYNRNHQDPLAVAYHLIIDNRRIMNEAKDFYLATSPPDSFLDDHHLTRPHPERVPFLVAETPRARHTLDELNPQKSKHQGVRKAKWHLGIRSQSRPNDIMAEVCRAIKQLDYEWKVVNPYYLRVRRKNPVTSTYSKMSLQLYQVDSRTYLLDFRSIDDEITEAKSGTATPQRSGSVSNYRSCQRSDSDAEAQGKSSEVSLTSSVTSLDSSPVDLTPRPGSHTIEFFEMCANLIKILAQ
# T1 sequence (Q9Y478 whole entry): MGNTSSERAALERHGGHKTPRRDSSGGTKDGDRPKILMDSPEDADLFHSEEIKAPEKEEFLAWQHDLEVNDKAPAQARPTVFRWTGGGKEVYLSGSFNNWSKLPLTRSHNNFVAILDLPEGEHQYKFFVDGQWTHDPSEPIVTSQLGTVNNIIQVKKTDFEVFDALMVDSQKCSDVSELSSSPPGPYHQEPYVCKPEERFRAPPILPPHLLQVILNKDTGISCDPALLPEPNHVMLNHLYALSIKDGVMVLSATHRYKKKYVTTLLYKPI
# T1 sequence (P54619 whole entry partner): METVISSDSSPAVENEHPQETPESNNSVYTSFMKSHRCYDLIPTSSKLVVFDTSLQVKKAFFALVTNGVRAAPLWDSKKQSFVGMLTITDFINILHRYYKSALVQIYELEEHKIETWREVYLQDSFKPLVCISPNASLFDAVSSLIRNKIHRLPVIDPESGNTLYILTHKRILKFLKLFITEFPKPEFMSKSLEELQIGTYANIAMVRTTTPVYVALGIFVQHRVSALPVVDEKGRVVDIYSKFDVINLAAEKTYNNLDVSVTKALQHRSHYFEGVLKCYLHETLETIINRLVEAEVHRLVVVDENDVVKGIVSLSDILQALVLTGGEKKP
row,SMILES,EC50 [nM]
1,"CS(C)(=O)=NCc1ccc(-c2ccc(-c3nc4[nH]c(O[C@@H]5CO[C@H]6[C@@H]5OC[C@H]6O)nc4cc3Cl)cc2)nc1 [Example 48, N-(6-(4-(6-Chloro-2-((3R,3aR,6R,6aR)-6-hydroxyhexahydrofuro[3,2-b]furan-3-yloxy)-3H-imidazo[4,5-b]pyridin-5-yl)phenyl)pyridin-3-ylmethyl)-S,S-dimethylsulfoximide]",16
2,"CS(=N)(=O)c1cnc(-c2ccc(-c3nc4[nH]c(O[C@@H]5CO[C@H]6[C@@H]5OC[C@H]6O)nc4cc3Cl)cc2)nc1 (stereo partly drawn) [Example 49, (3R,3aR,6R,6aR)-6-(6-Chloro-5-(4-(5-(S-methylsulfonimidoyl)pyrimidin-2-yl)phenyl)-3H-imidazo[4,5-b]pyridin-2-yloxy)hexahydrofuro[3,2-b]furan-3-ol]",26
3,"CS(C)(=O)=Nc1cccc(-c2ccc(-c3nc4[nH]c(O[C@@H]5CO[C@H]6[C@@H]5OC[C@H]6O)nc4cc3Cl)cc2)n1 [Example 47, N-(6-{4-[6-Chloro-2-((3R,3aR,6R,6aR)-6-hydroxyhexahydrofuro[3,2-b]furan-3-yloxy)-3H-imidazo[4,5-b]pyridin-5-yl]-phenyl}-pyridin-2-yl)-S,S-dimethylsulfoximide]",67
4,"CS(C)(=N)=Nc1ccc(-c2nc3[nH]c(O[C@@H]4CO[C@H]5[C@@H]4OC[C@H]5O)nc3cc2Cl)cc1 [Example 56, N-(4-(6-Chloro-2-((3R,3aR,6R,6aR)-6-hydroxyhexahydrofuro[3,2-b]furan-3-yloxy)-3H-imidazo[4,5-b]pyridin-5-yl)phenyl)-S,S-dimethyl-sulfondiimine]",41
5,CN=S1(=O)CCN(c2ccc(-c3nc4[nH]c(O[C@@H]5CO[C@H]6[C@@H]5OC[C@H]6O)nc4cc3Cl)cc2)CC1 [Example 5],62
6,"CS(=N)(=O)[C@H]1CC[C@@H](c2ccc(-c3nc4[nH]c(O[C@@H]5CO[C@H]6[C@@H]5OC[C@H]6O)nc4cc3Cl)cc2)CC1 (stereo partly drawn) [Example 33, cis-(3R,3aR,6R,6aR)-6-(6-Chloro-5-[4-{4-(S-methylsulfonimidoyl)-cyclohexyl}-phenyl]-3H-imidazo[4,5-b]pyridin-2-yloxy)-hexahydro-furo[3,2-b]furan-3-ol]",265
7,"O=S1(=Nc2ccc(-c3ccc(-c4nc5[nH]c(O[C@@H]6CO[C@H]7[C@@H]6OC[C@H]7O)nc5cc4Cl)cc3)cc2)CCCC1 [Example 8, (3R,3aR,6R,6aR)-6-{6-Chloro-5-[4′-(1-oxo-tetrahydro-1λ4-thiophen-1-ylideneamino)-biphenyl-4-yl]-3H-imidazo[4,5-b]pyridin-2-yloxy}-hexahydro-furo[3,2-b]furan-3-ol]",4
8,"CCS(C)(=O)=Nc1ccc(-c2ccc(-c3nc4[nH]c(O[C@@H]5CO[C@H]6[C@@H]5OC[C@H]6O)nc4cc3Cl)cc2)cc1 (stereo partly drawn) [Example 13, N-(4′-(6-Chloro-2-((3R,3aR,6R,6aR)-6-hydroxyhexahydrofuro[3,2-b]furan-3-yloxy)-3H-imidazo[4,5-b]pyridin-5-yl)biphenyl-4-yl)-S-ethyl-S-methylsulfoximide]",4
9,"CS(C)(=O)=NCc1cccc(-c2ccc(-c3nc4[nH]c(O[C@@H]5CO[C@H]6[C@@H]5OC[C@H]6O)nc4cc3Cl)cc2)c1 [Example 38, N-(4′-(6-Chloro-2-((3R,3aR,6R,6aR)-6-hydroxyhexahydrofuro[3,2-b]furan-3-yloxy)-3H-imidazo[4,5-b]pyridin-5-yl)biphenyl-3-ylmethyl)-S,S-dimethylsulfoximide]",704
10,"CCS(=O)(CC)=Nc1ccc(-c2ccc(-c3nc4[nH]c(O[C@@H]5CO[C@H]6[C@@H]5OC[C@H]6O)nc4cc3Cl)cc2)cc1 [Example 11, N-(4′-(6-Chloro-2-((3R,3aR,6R,6aR)-6-hydroxyhexahydrofuro[3,2-b]furan-3-yloxy)-3H-imidazo[4,5-b]pyridin-5-yl)biphenyl-4-yl)-S,S-diethylsulfoximide]",3
11,"C[S@@](=O)(=NC(=O)c1ccc(-c2nc3[nH]c(O[C@@H]4CO[C@H]5[C@@H]4OC[C@H]5O)nc3cc2Cl)cc1)c1ccccc1 [Example 16, (S)-N-4-(6-Chloro-2-((3R,3aR,6R,6aR)-6-hydroxyhexahydrofuro[3,2-b]furan-3-yloxy)-3H-imidazo[4,5-b]pyridin-5-yl)benzoyl-S-methyl-5-phenylsulfoximine]",245
12,"CN=S(C)(=O)c1ccc(N2CCN(c3nc4[nH]c(O[C@@H]5CO[C@H]6[C@@H]5OC[C@H]6O)nc4cc3Cl)CC2)cc1 (stereo partly drawn) [Example 29, (3R,3aR,6R,6aR)-6-(6-Chloro-5-(4-(4-(N,S-dimethylsulfonimidoyl)phenyl)piperazin-1-yl)-3H-imidazo[4,5-b]pyridin-2-yloxy)hexahydrofuro[3,2-b]furan-3-ol]",725
13,"O=C(N=S1(=O)CCOCC1)c1ccc(-c2nc3[nH]c(O[C@@H]4CO[C@H]5[C@@H]4OC[C@H]5O)nc3cc2Cl)cc1 [Example 21, 4-[6-Chloro-2-((3R,3aR,6R,6aR)-6-hydroxy-hexahydro-furo[3,2-b]furan-3-yloxy)-3H-imidazo[4,5-b]pyridin-5-yl]-N-(4-oxo-4λ6-[1,4]oxathian-4-ylidene)-benzamide]",43
14,"CS(=O)(=NC(=O)c1ccc(-c2nc3[nH]c(O[C@@H]4CO[C@H]5[C@@H]4OC[C@H]5O)nc3cc2Cl)cc1)C1CCOCC1 (stereo partly drawn) [Example 20, N-4-(6-Chloro-2-((3R,3aR,6R,6aR)-6-hydroxyhexahydrofuro[3,2-b]furan-3-yloxy)-3H-imidazo[4,5-b]pyridin-5-yl)benzoyl-S-methyl-S-(tetrahydro-2H-pyran-4-yl)-sulfoximine]",776
15,"C[S@@](=O)(=Nc1ccc(-c2nc3[nH]c(O[C@@H]4CO[C@H]5[C@@H]4OC[C@H]5O)nc3cc2Cl)cc1)c1ccccc1 [Example 9, (S)-N-(4-(6-Chloro-2-((3R,3aR,6R,6aR)-6-hydroxyhexahydrofuro[3,2-b]furan-3-yloxy)-3H-imidazo[4,5-b]pyridin-5-yl)phenyl)-S-methyl-S-phenylsulfoximide]",14
16,"C[S@](=O)(=Nc1ccc(-c2nc3[nH]c(O[C@@H]4CO[C@H]5[C@@H]4OC[C@H]5O)nc3cc2Cl)cc1)c1ccccc1 [Example 12, (R)-N-(4-(6-Chloro-2-((3R,3aR,6R,6aR)-6-hydroxyhexahydrofuro[3,2-b]furan-3-yloxy)-3H-imidazo[4,5-b]pyridin-5-yl)phenyl)-S-methyl-S-phenylsulfoximide]",581
17,CS(C)(=O)=NC(=O)c1ccc(-c2nc3[nH]c(O[C@@H]4CO[C@H]5[C@@H]4OC[C@H]5O)nc3cc2Cl)cc1 [Example 3],402
18,N=S1(=O)CC=C(c2ccc(-c3nc4[nH]c(O[C@@H]5CO[C@H]6[C@@H]5OC[C@H]6O)nc4cc3Cl)cc2)CC1 (stereo partly drawn) [Example 40],50
19,CS(C)(=O)=NCc1cc(-c2ccc(-c3nc4[nH]c(O[C@@H]5CO[C@H]6[C@@H]5OC[C@H]6O)nc4cc3Cl)cc2)ccn1 [Example 53],56
20,"CS(C)(=O)=NCc1cccc(-c2ccc(-c3nc4[nH]c(O[C@@H]5CO[C@H]6[C@@H]5OC[C@H]6O)nc4cc3Cl)cc2)n1 [Example 35, N-(2-(4-(6-Chloro-2-((3R,3aR,6R,6aR)-6-hydroxyhexahydrofuro[3,2-b]furan-3-yloxy)-3H-imidazo[4,5-b]pyridin-5-yl)phenyl)pyridin-6-ylmethyl)-S,S-dimethylsulfoximide]",87
21,"CS(C)(=O)=Nc1ccc(-c2ccc(-c3nc4[nH]c(O[C@@H]5CO[C@H]6[C@@H]5OC[C@H]6O)nc4cc3Cl)cn2)cc1 [Example 32, N-(4-{5-[6-Chloro-2-((3R,3aR,6R,6aR)-6-hydroxyhexahydrofuro[3,2-b]furan-3-yloxy)-3H-imidazo[4,5-b]pyridin-5-yl]-pyridin-2-yl}-phenyl)-S,S-dimethylsulfoximide]",13

# Source: patent publication US9492436B2, “Azabenzimidazole derivatives” (Boehringer Ingelheim International GmbH, priority 2013, dated 2016)
